# Calls of active or inactive are those of the source. The rule behind the calls is not given here.
# Molecular target: Sphingosine 1-phosphate receptor 2 (Homo sapiens) (UniProt O95136)
# Test: S1P2 receptor antagonists, late-stage follow-up, counter-screen for S1PR3 antagonist project, cell-based, FRET, dose response (AID 743428)
# Conditions: S1P2-expressing cells, FRET reporter, antagonist counterscreen
# Chain of Sphingosine 1-phosphate receptor 2 (Homo sapiens) (O95136 whole entry, looked up): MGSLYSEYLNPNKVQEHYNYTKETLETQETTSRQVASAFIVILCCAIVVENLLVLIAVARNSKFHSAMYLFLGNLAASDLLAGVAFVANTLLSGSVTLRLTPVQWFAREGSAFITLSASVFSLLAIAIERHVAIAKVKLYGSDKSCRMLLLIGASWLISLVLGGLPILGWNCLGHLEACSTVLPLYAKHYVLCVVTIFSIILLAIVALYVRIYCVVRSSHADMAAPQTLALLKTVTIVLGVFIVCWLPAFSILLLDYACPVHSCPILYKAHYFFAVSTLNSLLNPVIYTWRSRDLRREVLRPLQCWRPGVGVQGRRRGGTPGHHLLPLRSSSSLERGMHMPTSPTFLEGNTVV
row,SMILES,IC50
1,O=C(NC(c1ccccc1)c1nc(-c2ccccc2)no1)c1cccc(Cl)n1 (configuration not stated),> 50 µM (inactive)
2,O=C(NC(c1nc(-c2ccccc2)no1)C1CCOCC1)c1ccc(Cl)c(Cl)c1 (configuration not stated),> 50 µM (inactive)
3,N#Cc1ccc(C(=O)NC(c2ccc(Cl)c(Cl)c2)c2nc(-c3ccccc3)no2)cc1 (configuration not stated),> 50 µM (inactive)
4,O=C(NC(c1ccc(Cl)cc1)c1nc(-c2ccccn2)no1)c1cccc(Cl)c1 (configuration not stated),> 50 µM (inactive)
5,O=C(c1cccc(Cl)c1)N(CCO)C(c1ccc(Cl)c(Cl)c1)c1nc(-c2ccccc2)no1 (configuration not stated),inactive
6,O=C(NC(c1ccc(Cl)c(Cl)c1)c1nc(-c2ccccc2)no1)c1ccc(Cl)c(Cl)c1 (configuration not stated),> 50 µM (inactive)
7,O=C(NC(c1cccc(Cl)c1)c1nc(-c2ccccc2)no1)c1cc(Cl)cc(Cl)c1 (configuration not stated),> 50 µM (inactive)
8,O=C(NC(Cc1ccccc1)c1nc(-c2ccccc2)no1)c1cccc(Cl)c1 (configuration not stated),inactive
9,COc1ccc(C(=O)NC(c2ccccc2)c2nc(-c3ccccc3)no2)cc1 (configuration not stated),> 50 µM (inactive)
10,O=C(NC(c1ccccc1)c1nc(-c2ccccc2)no1)c1cccc(Br)c1 (configuration not stated),> 50 µM (inactive)
11,O=C(NC(c1nc(-c2ccccc2)no1)C1CCCCC1)c1ccc(Cl)c(Cl)c1 (configuration not stated),> 50 µM (inactive)

# Next, values leading:
row,IC50,SMILES
1,> 50 µM (inactive),O=C(NC(c1cccc(Cl)c1)c1nc(-c2ccccc2)no1)c1ccc(Cl)c(Cl)c1 (configuration not stated)
2,> 50 µM (inactive),O=C(NC(c1ccc(Cl)cc1)c1nc(-c2cccc(Cl)c2)no1)c1cccc(Cl)c1 (configuration not stated)
3,> 50 µM (inactive),O=C(NC(c1ccc(Cl)c(Cl)c1)c1nc(-c2ccccc2)no1)c1ccc(Cl)cc1 (configuration not stated)
4,> 50 µM (inactive),O=C(NC(c1ccc(Cl)c(Cl)c1)c1nc(-c2ccccc2)no1)c1cccc(Cl)c1 (configuration not stated)
5,> 50 µM (inactive),O=C(NC(c1ccc(Cl)cc1)c1nc(-c2ccccc2)no1)c1cccc(Br)c1 (configuration not stated)
6,> 50 µM (inactive),O=C(NC(c1ccccc1)c1nc(-c2ccccc2)no1)c1cccc(Cl)c1 (configuration not stated)
7,> 50 µM (inactive),O=C(NC(c1cccc(Cl)c1)c1nc(-c2ccccc2)no1)c1cccc(Cl)c1 (configuration not stated)
8,> 50 µM (inactive),Cc1ccc(C(=O)NC(c2ccccc2)c2nc(-c3ccccc3)no2)cc1 (configuration not stated)
9,> 50 µM (inactive),O=C(NC(c1ccccc1)c1nc(-c2ccccc2)no1)c1ccc(Cl)cc1 (configuration not stated)
10,> 50 µM (inactive),O=C(NC(c1ccc(Cl)cc1)c1nc(-c2ccccc2)no1)c1ccc(Cl)c(Br)c1 (configuration not stated)
11,> 50 µM (inactive),O=C(NC(c1ccc(Br)cc1)c1nc(-c2ccccc2)no1)c1ccc(Cl)c(Cl)c1 (configuration not stated)
12,> 50 µM (inactive),O=C(NC(c1ccc(Cl)cc1)c1nc(-c2ccccc2)no1)c1cccc(Cl)c1 (configuration not stated)
13,> 50 µM (inactive),CCc1ccc(C(NC(=O)c2cccc(Cl)c2)c2nc(-c3ccccc3)no2)cc1 (configuration not stated)
14,> 50 µM (inactive),O=C(NC(c1ccc(Cl)c(Cl)c1)c1nc(-c2ccccc2)no1)c1ccccc1 (configuration not stated)
15,> 50 µM (inactive),O=C(NC(c1ccc(Cl)cc1)c1nc(-c2ccccc2)no1)c1ccc(Cl)c(Cl)c1 (configuration not stated)
16,> 50 µM (inactive),Cc1ccc(C(NC(=O)c2cccc(Cl)c2)c2nc(-c3ccccc3)no2)cc1 (configuration not stated)
